Converted amounts (≈) assume the structure as drawn.
Legend:
S. aureus IHT 99040 = experiment: MIC, multi-resistant clinical isolate; format: cell-based, Staphylococcus aureus; details: for selectivity index (EC50/MIC): RBC EC50 / MIC; for MIC: Staphylococcus aureus, IHT99040, read-out: Antimicrobial activity (MIC)
Protocol: (§1) Working solutions of the test derivatives were prepared with up to 100% DMSO and stored at −20° C. If necessary, the solutions were heated to 40-80° C. before testing to facilitate complete dissolution. Double-distilled water was used in all dilutions prepared. […] A microdilution susceptibility test was used for MIC determination according to Clinical and Laboratory Standards Institute, “Methods for Dilution Antimicrobial Sisceptibility Tests for Bacteria That Graw Aerobically”, Approved Standard M07-A9, edition 2012, with modifications as described by Igumnova et al (Bioorg Med Chem, 2016, 24 (22), 5884-5894).
(§2) Briefly, the bacterial inoculum was adjusted to approximately 2.5-3×10^4 cells/mL in Mueller-Hinton broth (MHB, Difco Laboratories, USA), and incubated in a ratio of 1:1 with test derivatives in polystyrene 96-well flat-bottom microplates (NUNC, Roskilde, Denmark). Positive growth control (without test derivatives) and negative control (without bacteria) were included. The reference antibiotic was oxytetracycline hydrochloride (Sigma Aldrich, Saint Louis, Mo., USA). The microplates were incubated in an EnVision microplate reader (Perkin-Elmer, Turku, Finland) placed in an incubator set to 35° C. for 48 h. The MIC value was defined as the lowest concentration of derivative resulting in no bacterial growth as determined by OD600 measurement. All derivatives were tested in three parallels.
(§3) The MIC was determined as explained above with some exceptions; working solutions of test derivatives were prepared from concentrated DMSO stocks stored at room temperature, the density of the bacterial inoculum was increased 40× to 1-1.2×10^6 cells/mL, enterococci were incubated in Brain Heart Infusion broth (BHIB, Difco Laboratories, USA), the microplates were incubated for 24 h, and the derivatives were tested in four parallels.

A. baumanii K55-13 = experiment: MIC, multi-resistant clinical isolate; format: cell-based, Acinetobacter baumannii; details: for MIC: Acinetobacter baumannii, K5513, read-out: Antimicrobial activity (MIC); for selectivity index (EC50/MIC): RBC EC50 / MIC
Protocol: as §1, §2, §3

A. baumanii K63-58 = experiment: MIC, multi-resistant clinical isolate; format: cell-based, Acinetobacter baumannii; details: A. baumanii K63-58, resistant to colistin; for MIC: Acinetobacter baumannii, K6358, 24 h, read-out: Antimicrobial activity (MIC); for selectivity index (EC50/MIC): RBC EC50 / MIC
Protocol: as §1, §2, §3

A. baumanii K44-35 = experiment: MIC, multi-resistant clinical isolate; format: cell-based, Acinetobacter baumannii; details: for MIC: Acinetobacter baumannii, K4435, read-out: Antimicrobial activity (MIC); for selectivity index (EC50/MIC): RBC EC50 / MIC
Protocol: as §1, §2, §3

A. baumanii K47-42 = experiment: MIC, multi-resistant clinical isolate; format: cell-based, Acinetobacter baumannii; details: for MIC: Acinetobacter baumannii, K4742, read-out: Antimicrobial activity (MIC); for selectivity index (EC50/MIC): RBC EC50 / MIC
Protocol: as §1, §2, §3

A. baumanii K12-21 = experiment: MIC, multi-resistant clinical isolate; format: cell-based, Acinetobacter baumannii; details: for MIC: Acinetobacter baumannii, K1221, read-out: Antimicrobial activity (MIC); for selectivity index (EC50/MIC): RBC EC50 / MIC
Protocol: as §1, §2, §3

P. aeruginosa K44-24 = experiment: MIC, multi-resistant clinical isolate; format: cell-based, Pseudomonas aeruginosa; details: for MIC: Pseudomonas aeruginosa, K4424, read-out: Antimicrobial activity (MIC); for selectivity index (EC50/MIC): RBC EC50 / MIC
Protocol: as §1, §2, §3

P. aeruginosa 50692172 = experiment: MIC, multi-resistant clinical isolate; format: cell-based, Pseudomonas aeruginosa; details: for MIC: Pseudomonas aeruginosa, read-out: Antimicrobial activity (MIC); for selectivity index (EC50/MIC): RBC EC50 / MIC
Protocol: as §1, §2, §3

P. aeruginosa 50692520 = experiment: MIC, multi-resistant clinical isolate; format: cell-based, Pseudomonas aeruginosa; details: for MIC: Pseudomonas aeruginosa, read-out: Antimicrobial activity (MIC); for selectivity index (EC50/MIC): RBC EC50 / MIC
Protocol: as §1, §2, §3

P. aeruginosa K34-7 = experiment: MIC, multi-resistant clinical isolate; format: cell-based, Pseudomonas aeruginosa; details: for MIC: Pseudomonas aeruginosa, K347, read-out: Antimicrobial activity (MIC); for selectivity index (EC50/MIC): RBC EC50 / MIC, P. aeruginosa K34-7
Protocol: as §1, §2, §3

P. aeruginosa K34-73 = experiment: MIC, multi-resistant clinical isolate; format: cell-based, Pseudomonas aeruginosa; details: P. aeruginosa K34-73; for MIC: Pseudomonas aeruginosa, K3473, read-out: Antimicrobial activity (MIC); for selectivity index (EC50/MIC): RBC EC50 / MIC
Protocol: as §1, §2, §3

E. coli 50857972 = experiment: MIC, multi-resistant clinical isolate; format: cell-based, Escherichia coli; details: for MIC: Escherichia coli, read-out: Antimicrobial activity (MIC); for selectivity index (EC50/MIC): RBC EC50 / MIC
Protocol: as §1, §2, §3

E. coli 50676002 = experiment: MIC, multi-resistant clinical isolate; format: cell-based, Escherichia coli; details: E. coli 50676002; for MIC: Escherichia coli, read-out: Antimicrobial activity (MIC); for selectivity index (EC50/MIC): RBC EC50 / MIC
Protocol: as §1, §2, §3

E. coli 50639799 = experiment: MIC, multi-resistant clinical isolate; format: cell-based, Escherichia coli; details: for MIC: Escherichia coli, read-out: Antimicrobial activity (MIC); for selectivity index (EC50/MIC): RBC EC50 / MIC
Protocol: as §1, §2, §3

E. coli 50579417 = experiment: MIC, multi-resistant clinical isolate; format: cell-based, Escherichia coli; details: for MIC: Escherichia coli, read-out: Antimicrobial activity (MIC); for selectivity index (EC50/MIC): RBC EC50 / MIC
Protocol: as §1, §2, §3

E. coli 50739822 = experiment: MIC, multi-resistant clinical isolate; format: cell-based, Escherichia coli; details: for MIC: Escherichia coli, read-out: Antimicrobial activity (MIC); for selectivity index (EC50/MIC): RBC EC50 / MIC
Protocol: as §1, §2, §3

[1] = Determination of haemolytic activity; format: cell-based; details: human red blood cells (washed, from heparinized fresh blood); human RBCs, 1 h, 37° C.; read-out: RBC: haemolytic activity against human RBCs (EC50)
Protocol: Hemolysis was determined using a heparinized fraction (1000 IU/mL) of freshly drawn blood. Blood collected in EDTA containing test tubes (Vacutest®, KIMA, Arzergrande, Italy) was used for determination of the hematocrit (hct). The heparinized blood was washed 3× with pre-warmed PBS and adjusted to a final hct of 4%. Derivatives in DMSO (50 mM) were added to a 96-well polypropylene V-bottom plate (NUNC, Fisher Scientific, Oslo, Norway) and serially diluted. The test concentration range was 500-4 μM with DMSO contents ≤1%. A solution of 1% triton X-100 was used as positive control for 100% hemolysis. As negative control a solution of 1% DMSO in PBS buffer was included. No signs of DMSO toxicity were detected. RBCs (1% v/v final concentration) were added to the well plate and incubated at 37° C. and 800 rpm for 1 h. After centrifugation (5 min, 3000 g), 100 μL of each well were transferred to a 96-well flat bottom plate and absorbance was measured at 545 nm with a microplate reader (VersaMax™, Molecular Devices, Sunnyvale, Calif., USA). The percentage of hemolysis was calculated as the ratio of the absorbance in the derivative-treated and surfactant treated samples, corrected for the PBS background. Three independent experiments were performed and EC50 values are presented as averages.

SMILES	selectivity index (EC50/MIC) (S. aureus IHT 99040)	MIC (S. aureus IHT 99040)	MIC (A. baumanii K55-13)	selectivity index (EC50/MIC) (A. baumanii K55-13)	MIC (A. baumanii K63-58)	selectivity index (EC50/MIC) (A. baumanii K63-58)	MIC (A. baumanii K44-35)	selectivity index (EC50/MIC) (A. baumanii K44-35)	MIC (A. baumanii K47-42)	selectivity index (EC50/MIC) (A. baumanii K47-42)	MIC (A. baumanii K12-21)	selectivity index (EC50/MIC) (A. baumanii K12-21)	MIC (P. aeruginosa K44-24)	selectivity index (EC50/MIC) (P. aeruginosa K44-24)	MIC (P. aeruginosa 50692172)	selectivity index (EC50/MIC) (P. aeruginosa 50692172)	MIC (P. aeruginosa 50692520)	selectivity index (EC50/MIC) (P. aeruginosa 50692520)	MIC (P. aeruginosa K34-7)	selectivity index (EC50/MIC) (P. aeruginosa K34-7)	other results
CC(C)(C)c1cc(CC2(Cc3cc(C(C)(C)C)cc(C(C)(C)C)c3)C(=O)N(CCCCNC(=N)N)C(=O)N(CCCCNC(=N)N)C2=O)cc(C(C)(C)C)c1 [8(iii), 1,1′-(4,4′-(5,5-bis(3,5-di-tert-butylbenzyl)-2,4,6-trioxodihydropyrimidine-1,3(2H,4H)-diyl)bis(butane-4,1-diyl))-diguanidine]	(<2)	2 µg/mL (≈ 2.63 µM)	4 µg/mL (≈ 5.27 µM)	(<1)	4 µg/mL (≈ 5.27 µM)	(<1)	4 µg/mL (≈ 5.27 µM)	(<1)	4 µg/mL (≈ 5.27 µM)	(<1)	4 µg/mL (≈ 5.27 µM)	(<1)	16 µg/mL (≈ 21.1 µM)	(<0.25)	16 µg/mL (≈ 21.1 µM)	(<0.25)	16 µg/mL (≈ 21.1 µM)	(<0.25)	16 µg/mL (≈ 21.1 µM)	(<0.25)	MIC (P. aeruginosa K34-73): 8 µg/mL (≈ 10.5 µM); selectivity index (EC50/MIC) (P. aeruginosa K34-73): (<0.5); MIC (E. coli 50857972): 8 µg/mL (≈ 10.5 µM); selectivity index (EC50/MIC) (E. coli 50857972): (<0.5); MIC (E. coli 50676002): 16 µg/mL (≈ 21.1 µM); selectivity index (EC50/MIC) (E. coli 50676002): (<0.25); MIC (E. coli 50639799): 8 µg/mL (≈ 10.5 µM); selectivity index (EC50/MIC) (E. coli 50639799): (<0.5); MIC (E. coli 50579417): 16 µg/mL (≈ 21.1 µM); selectivity index (EC50/MIC) (E. coli 50579417): (<0.25); MIC (E. coli 50739822): 8 µg/mL (≈ 10.5 µM); selectivity index (EC50/MIC) (E. coli 50739822): (<0.5); EC50 at 1 h [1]: < 4 µg/mL
N=C(N)NCCCCN1C(=O)N(CCCCNC(=N)N)C(=O)C(Cc2ccc3ccccc3c2)(Cc2ccc3ccccc3c2)C1=O [8(iv), 1,1′-(4,4′-(5,5-bis(naphthalen-2-ylmethyl)-2,4,6-trioxodihydropyrimidine-1,3(2H,4H)-diyl)bis(butane-4,1-diyl))-diguanidine]	(17)	8 µg/mL (≈ 12.6 µM)	32 µg/mL (≈ 50.4 µM)	(4)	32 µg/mL (≈ 50.4 µM)	(4)	32 µg/mL (≈ 50.4 µM)	(4)	32 µg/mL (≈ 50.4 µM)	(4)	32 µg/mL (≈ 50.4 µM)	(4)	32 µg/mL (≈ 50.4 µM)	(4)	32 µg/mL (≈ 50.4 µM)	(4)	32 µg/mL (≈ 50.4 µM)	(4)	32 µg/mL (≈ 50.4 µM)	(4)	MIC (P. aeruginosa K34-73): 32 µg/mL (≈ 50.4 µM); selectivity index (EC50/MIC) (P. aeruginosa K34-73): (4); MIC (E. coli 50857972): 8 µg/mL (≈ 12.6 µM); selectivity index (EC50/MIC) (E. coli 50857972): (17); MIC (E. coli 50676002): 8 µg/mL (≈ 12.6 µM); selectivity index (EC50/MIC) (E. coli 50676002): (17); MIC (E. coli 50639799): 8 µg/mL (≈ 12.6 µM); selectivity index (EC50/MIC) (E. coli 50639799): (17); MIC (E. coli 50579417): 16 µg/mL (≈ 25.2 µM); selectivity index (EC50/MIC) (E. coli 50579417): (8); MIC (E. coli 50739822): 8 µg/mL (≈ 12.6 µM); selectivity index (EC50/MIC) (E. coli 50739822): (17); EC50 at 1 h [1]: 133 µg/mL (≈ 210 µM)
N=C(N)NCCCCN1C(=O)N(CCCCNC(=N)N)C(=O)C(Cc2ccc(F)c3ccccc23)(Cc2ccc(F)c3ccccc23)C1=O [8(v), 1,1′-(4,4′-(5,5-bis((4-fluoronaphthalen-1-yl)methyl)-2,4,6-trioxodihydropyrimidine-1,3(2H,4H)-diyl)bis(butane-4,1-diyl))diguanidine]	(44)	2 µg/mL (≈ 2.98 µM)	8 µg/mL (≈ 11.9 µM)	(11)	8 µg/mL (≈ 11.9 µM)	(11)	8 µg/mL (≈ 11.9 µM)	(11)	8 µg/mL (≈ 11.9 µM)	(11)	8 µg/mL (≈ 11.9 µM)	(11)	16 µg/mL (≈ 23.9 µM)	(6)	16 µg/mL (≈ 23.9 µM)	(6)	16 µg/mL (≈ 23.9 µM)	(6)	16 µg/mL (≈ 23.9 µM)	(6)	MIC (P. aeruginosa K34-73): 8 µg/mL (≈ 11.9 µM); selectivity index (EC50/MIC) (P. aeruginosa K34-73): (11); MIC (E. coli 50857972): 4 µg/mL (≈ 5.96 µM); selectivity index (EC50/MIC) (E. coli 50857972): (22); MIC (E. coli 50676002): 4 µg/mL (≈ 5.96 µM); selectivity index (EC50/MIC) (E. coli 50676002): (22); MIC (E. coli 50639799): 4 µg/mL (≈ 5.96 µM); selectivity index (EC50/MIC) (E. coli 50639799): (22); MIC (E. coli 50579417): 8 µg/mL (≈ 11.9 µM); selectivity index (EC50/MIC) (E. coli 50579417): (11); MIC (E. coli 50739822): 8 µg/mL (≈ 11.9 µM); selectivity index (EC50/MIC) (E. coli 50739822): (11); EC50 at 1 h [1]: 88 µg/mL (≈ 131 µM)

— patent publication US11072588B2, “Barbituric acid derivatives comprising cationic and lipophilic groups” (UNIVERSITETET I TROMSØ—NORGES ARKTISKE UNIVERSITET, priority 2017, dated 2021)
